Measurements as given in the supplement of paper PMC10307832.

What was measured:
Test in all cases: relative viability (nuclei count vs DMSO), 5 days (fraction); higher = more cells survive
[1] = tested on: NCI-H1755
Outline: (§1)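 A single step with final 0.05% Triton X-100, 1% formaldehyde and 1 ug/ml Hoechst fixed the cells and stained nuclei 5 days after treatment. Lung cancer cell lines in 1536-well plates had been treated by pin tool the day after seeding with one drug alone or a fixed anchor-drug dose plus five library-drug doses (not always all listed) in √10 steps, and nuclei were counted on 4× images. Relative viability is the ratio of nuclei in treated wells to nuclei in vehicle wells, taken as the median of duplicate plates.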

[2] = tested on: PC-14
Outline: as §1

[3] = tested on: SK-MES-1
Outline: as §1

[4] = tested on: NCI-H661
Outline: as §1

[5] = tested on: NCI-H441
Outline: as §1

[6] = tested on: NCI-H1792
Outline: as §1

[7] = tested on: NCI-H596
Outline: as §1

[8] = tested on: LXF-289
Outline: as §1

[9] = tested on: NCI-H1915
Outline: as §1

[10] = tested on: NCI-H322M
Outline: as §1

[11] = tested on: NCI-H460
Outline: as §1

[12] = tested on: NCI-H1651
Outline: as §1

[13] = tested on: NCI-H520
Outline: as §1

[14] = tested on: NCI-H3122
Outline: as §1

[15] = tested on: SW 900
Outline: as §1

[16] = tested on: LCLC-103H
Outline: as §1

[17] = tested on: NCI-H1355
Outline: as §1

[18] = tested on: NCI-H727
Outline: as §1

[19] = tested on: NCI-H2347
Outline: as §1

[20] = tested on: RERF-LC-KJ
Outline: as §1

[21] = tested on: NCI-H522
Outline: as §1

For `CC(=O)O[C@@]12CO[C@@H]1C[C@H](O)[C@@]1(C)C(=O)[C@H](O)C3=C(C)[C@@H](OC(=O)[C@H](O)[C@@H](NC(=O)OC(C)(C)C)c4ccccc4)C[C@@](O)([C@@H](OC(=O)c4ccccc4)[C@H]21)C3(C)C` [Docetaxel] + CC(=O)Nc1cccc(-n2c(=O)n(C3CC3)c(=O)c3c(Nc4ccc(I)cc4F)n(C)c(=O)c(C)c32)c1 [Trametinib] (partner 0.02 µM), the relative viability ([1]; first compound 0.0002 µM) was 0.766, the relative viability ([1]; first compound 0.000632 µM) was 0.743 and the relative viability ([1]; first compound 0.002 µM) was 0.555. For the same molecule, the relative viability ([1]; first compound 0.006325 µM) was 0.415, the relative viability ([1]; first compound 0.02 µM) was 0.381 and the relative viability ([2]; first compound 0.0002 µM) was 0.648. The relative viability ([2]; first compound 0.000632 µM) was 0.679, the relative viability ([2]; first compound 0.002 µM) was 0.0905 and the relative viability ([2]; first compound 0.006325 µM) was 0.0687. For the same molecule, the relative viability ([2]; first compound 0.02 µM) was 0.0257, the relative viability ([3]; first compound 0.0002 µM) was 0.63 and the relative viability ([3]; first compound 0.000632 µM) was 0.758. For the same molecule, the relative viability ([3]; first compound 0.002 µM) was 0.436, the relative viability ([3]; first compound 0.006325 µM) was 0.313 and the relative viability ([3]; first compound 0.02 µM) was 0.185. For the same molecule, the relative viability ([4]; first compound 0.0002 µM) was 0.53, the relative viability ([4]; first compound 0.000632 µM) was 0.611 and the relative viability ([4]; first compound 0.002 µM) was 0.568. The relative viability ([4]; first compound 0.006325 µM) was 0.371, the relative viability ([4]; first compound 0.02 µM) was 0.347 and the relative viability ([5]; first compound 0.0002 µM) was 0.389. The relative viability ([5]; first compound 0.000632 µM) was 0.255, the relative viability ([5]; first compound 0.002 µM) was 0.202 and the relative viability ([5]; first compound 0.006325 µM) was 0.187. For the same molecule, the relative viability ([5]; first compound 0.02 µM) was 0.144, the relative viability ([6]; first compound 0.0002 µM) was 0.377 and the relative viability ([6]; first compound 0.000632 µM) was 0.338. It also gave a relative viability ([6]; first compound 0.002 µM) of 0.31, a relative viability ([6]; first compound 0.006325 µM) of 0.142 and a relative viability ([6]; first compound 0.02 µM) of 0.0842. The relative viability ([7]; first compound 0.0002 µM) was 0.807, the relative viability ([7]; first compound 0.000632 µM) was 0.997 and the relative viability ([7]; first compound 0.002 µM) was 0.642. It also gave a relative viability ([7]; first compound 0.006325 µM) of 0.555, a relative viability ([7]; first compound 0.02 µM) of 0.277 and a relative viability ([8]; first compound 0.0002 µM) of 0.648. The relative viability ([8]; first compound 0.000632 µM) was 0.673, the relative viability ([8]; first compound 0.002 µM) was 0.335 and the relative viability ([8]; first compound 0.006325 µM) was 0.18. The relative viability ([8]; first compound 0.02 µM) was 0.109, the relative viability ([9]; first compound 0.0002 µM) was 0.3 and the relative viability ([9]; first compound 0.000632 µM) was 0.288. For the same molecule, the relative viability ([9]; first compound 0.002 µM) was 0.228, the relative viability ([9]; first compound 0.006325 µM) was 0.151 and the relative viability ([9]; first compound 0.02 µM) was 0.0803. The relative viability ([10]; first compound 0.0002 µM) was 0.554, the relative viability ([10]; first compound 0.000632 µM) was 0.507 and the relative viability ([10]; first compound 0.002 µM) was 0.441. For the same molecule, the relative viability ([10]; first compound 0.006325 µM) was 0.524, the relative viability ([10]; first compound 0.02 µM) was 0.441 and the relative viability ([11]; first compound 0.0002 µM) was 0.103. For the same molecule, the relative viability ([11]; first compound 0.000632 µM) was 0.0804, the relative viability ([11]; first compound 0.002 µM) was 0.0715 and the relative viability ([11]; first compound 0.006325 µM) was 0.0192. It also gave a relative viability ([11]; first compound 0.02 µM) of 0.0118, a relative viability ([12]; first compound 0.0002 µM) of 0.843 and a relative viability ([12]; first compound 0.000632 µM) of 0.83. For the same molecule, the relative viability ([12]; first compound 0.002 µM) was 0.586, the relative viability ([12]; first compound 0.006325 µM) was 0.268 and the relative viability ([13]; first compound 0.0002 µM) was 0.565. It also gave a relative viability ([13]; first compound 0.000632 µM) of 0.711, a relative viability ([13]; first compound 0.002 µM) of 0.243 and a relative viability ([13]; first compound 0.006325 µM) of 0.206. The relative viability ([13]; first compound 0.02 µM) was 0.119, the relative viability ([14]; first compound 0.0002 µM) was 0.219 and the relative viability ([14]; first compound 0.000632 µM) was 0.215. It also gave a relative viability ([14]; first compound 0.002 µM) of 0.194, a relative viability ([14]; first compound 0.006325 µM) of 0.194 and a relative viability ([14]; first compound 0.02 µM) of 0.128. The relative viability ([15]; first compound 0.0002 µM) was 0.802, the relative viability ([15]; first compound 0.000632 µM) was 0.287 and the relative viability ([15]; first compound 0.002 µM) was 0.232. The relative viability ([15]; first compound 0.02 µM) was 0.163, the relative viability ([16]; first compound 0.0002 µM) was 0.675 and the relative viability ([16]; first compound 0.000632 µM) was 0.697. It also gave a relative viability ([16]; first compound 0.002 µM) of 0.727, a relative viability ([16]; first compound 0.006325 µM) of 0.782 and a relative viability ([16]; first compound 0.02 µM) of 0.592. The relative viability ([17]; first compound 0.0002 µM) was 0.384, the relative viability ([17]; first compound 0.000632 µM) was 0.441 and the relative viability ([17]; first compound 0.002 µM) was 0.262. It also gave a relative viability ([17]; first compound 0.006325 µM) of 0.26, a relative viability ([17]; first compound 0.02 µM) of 0.183 and a relative viability ([18]; first compound 0.0002 µM) of 0.398. The relative viability ([18]; first compound 0.000632 µM) was 0.379, the relative viability ([18]; first compound 0.002 µM) was 0.402 and the relative viability ([18]; first compound 0.006325 µM) was 0.386. For the same molecule, the relative viability ([18]; first compound 0.02 µM) was 0.339, the relative viability ([19]; first compound 0.0002 µM) was 0.243 and the relative viability ([19]; first compound 0.000632 µM) was 0.349. The relative viability ([19]; first compound 0.002 µM) was 0.262, the relative viability ([19]; first compound 0.006325 µM) was 0.271 and the relative viability ([19]; first compound 0.02 µM) was 0.229. For the same molecule, the relative viability ([20]; first compound 0.0002 µM) was 0.767, the relative viability ([20]; first compound 0.000632 µM) was 0.816 and the relative viability ([20]; first compound 0.002 µM) was 0.39. For the same molecule, the relative viability ([20]; first compound 0.006325 µM) was 0.217, the relative viability ([20]; first compound 0.02 µM) was 0.142 and the relative viability ([21]; first compound 0.0002 µM) was 0.79. It also gave a relative viability ([21]; first compound 0.000632 µM) of 0.723, a relative viability ([21]; first compound 0.002 µM) of 0.676 and a relative viability ([21]; first compound 0.006325 µM) of 0.42. It also gave a relative viability ([21]; first compound 0.02 µM) of 0.389.
